# Test results published in publication PMC10287695, “Non-covalent inhibitors of thioredoxin glutathione reductase with schistosomicidal activity in vivo” (Nature Communications, 2023).
# Where “and” joins values, the source holds several entries; their conditions need not be identical. Equal entries are not always repeated. Where two headings read alike, the source gives them in different places.
# How the values were obtained:
# PfTrxR = target: T1, PfTrxR (Plasmodium falciparum, UniProt Q25861); assay: P. falciparum TrxR enzyme inhibition; type: biochemical
# T1 construct: 6-His (N); made in house; host or cells: E. coli BL21 (DE3)
# T1 sequence (Q25861 1-541): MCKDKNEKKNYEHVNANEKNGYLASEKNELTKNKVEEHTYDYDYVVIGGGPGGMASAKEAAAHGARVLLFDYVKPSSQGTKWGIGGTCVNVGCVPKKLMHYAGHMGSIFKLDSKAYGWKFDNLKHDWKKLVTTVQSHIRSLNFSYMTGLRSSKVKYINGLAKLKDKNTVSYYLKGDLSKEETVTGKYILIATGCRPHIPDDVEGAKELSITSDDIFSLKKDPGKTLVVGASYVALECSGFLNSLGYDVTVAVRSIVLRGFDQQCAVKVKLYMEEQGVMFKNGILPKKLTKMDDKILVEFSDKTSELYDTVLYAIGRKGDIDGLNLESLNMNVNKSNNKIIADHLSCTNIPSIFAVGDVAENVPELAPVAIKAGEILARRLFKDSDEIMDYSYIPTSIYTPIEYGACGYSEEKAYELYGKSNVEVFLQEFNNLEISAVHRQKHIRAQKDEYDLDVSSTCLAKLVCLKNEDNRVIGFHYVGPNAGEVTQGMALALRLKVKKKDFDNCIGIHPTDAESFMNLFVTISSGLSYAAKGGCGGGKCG
# Procedure: Recombinant TGR, human TrxR1, B. malayi (Bm)TrxR and human GR proteins were expressed and purified as described[20],[69],[79]. The codon optimized sequence for P. falciparum (PfTrxR, https://www.ncbi.nlm.nih.gov/protein/CAA60574.1/) with an N-terminal 6-His tag was synthesized and inserted into pET15b (GenScript) and expressed in BL21 (DE3) cells and purified as described for human GR[20]. TGR and TrxR enzyme inhibition assays were performed in triplicate at 25 °C as described[20] in 0.1 M potassium phosphate (pH 7.4), 10 mM EDTA, 100 µM NADPH and 0.01% Tween-20. TGR, human TrxR1 and BmTrxR (all at 4 nM) and PfTrxR (50 nM) were preincubated with the compounds for 15 min. The reaction was started with addition of an equal volume of DTNB (6 mM) and NADPH (100 µM) and the increase in A412 during the first 3 min was recorded. […] The reaction was preincubated for 15 min. Activity was initiated with the addition of 1 mM GSSG and 100 μM NADPH and initial rates of NADPH oxidation were monitored at 340 nm. The reactions were done in triplicate. The IC50 was calculated in GraphPad Prism.
# [1] = tested on: TGR in newly transformed schistosomula (NTS); assay: TGR inhibition in NTS with TRFS-Green fluorescent probe; type: cell-based, S. mansoni; conditions: 2 h with inhibitor (30 µM; AF 3 µM) then TRFS-Green 10 µM
# How it was run: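 Newly transformed schistosomula were cultured overnight at 37 °C with 5% CO2 in M199 containing 5.5 mM D-glucose, penicillin-streptomycin and 5% heat inactivated fetal bovine serum. After treatment they received TRFS-Green (10 µM) for 4 h and were rinsed. Fluorescence was imaged (Keyence BZ-X800) and quantified on a Cytation3 at excitation 438 nm, emission 538 nm.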
# TGR = target: T2, TGR (Schistosoma mansoni, UniProt Q962Y6); assay: Time dependence of inhibition; type: biochemical; parameters: avg % inhib, 0.5 hr / avg % inhib, 1 hr / avg % inhib, 2 hr / avg % inhib, 3 hr / avg % inhib, 6 hr / avg % inhib, 24 hr: tested at 50 µM; conditions: for TGR activity relative to dmso, time 0 / TGR activity relative to dmso, time 5 / TGR activity relative to dmso, time 10 / TGR activity relative to dmso, time 15 / TGR activity relative to dmso, time 30: panel c; for TGR activity relative to dmso, time 0: time 0 (time unit not given); for TGR activity relative to dmso, time 5: time 5 (time unit not given); for TGR activity relative to dmso, time 10: time 10 (time unit not given); for TGR activity relative to dmso, time 15: time 15 (time unit not given); for TGR activity relative to dmso, time 30: time 30 (time unit not given)
# T2 construct: made in house
# T2 sequence (Q962Y6 1-598): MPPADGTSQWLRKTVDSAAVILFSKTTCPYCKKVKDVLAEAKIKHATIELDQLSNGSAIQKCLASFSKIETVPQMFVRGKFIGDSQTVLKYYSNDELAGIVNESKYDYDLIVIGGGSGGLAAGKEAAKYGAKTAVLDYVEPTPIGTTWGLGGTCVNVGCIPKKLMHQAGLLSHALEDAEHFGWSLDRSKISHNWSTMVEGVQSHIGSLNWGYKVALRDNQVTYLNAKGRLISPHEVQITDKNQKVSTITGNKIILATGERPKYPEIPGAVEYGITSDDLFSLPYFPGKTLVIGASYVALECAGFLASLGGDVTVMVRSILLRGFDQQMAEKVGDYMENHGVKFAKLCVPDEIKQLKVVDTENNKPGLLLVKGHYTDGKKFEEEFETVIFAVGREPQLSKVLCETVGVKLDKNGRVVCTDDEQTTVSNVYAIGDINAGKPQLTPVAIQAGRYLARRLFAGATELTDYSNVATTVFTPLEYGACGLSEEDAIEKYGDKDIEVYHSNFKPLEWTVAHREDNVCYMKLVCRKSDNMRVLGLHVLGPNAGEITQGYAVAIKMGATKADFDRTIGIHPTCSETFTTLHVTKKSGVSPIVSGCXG
# Procedure: TGR was incubated at room temperature (up to 6 h) and at 4 °C for 6 to 24 h with 50 µM inhibitor and 100 µM NADPH for the indicated times. Then DTNB (3 mM) and NADPH (100 µM) were added, and the reaction was monitored at A412 for 5 min. The assay was done in triplicate.
Compound,inhibition at 10 µM (PfTrxR) [%],inhibition at 25 µM (PfTrxR) [%],inhibition at 50 µM (PfTrxR) [%],TRFS-Green fluorescence in NTS [1],"TGR activity relative to dmso, time 0 (TGR; replicates)","TGR activity relative to dmso, time 5 (TGR; replicates)","TGR activity relative to dmso, time 10 (TGR; replicates)","TGR activity relative to dmso, time 15 (TGR; replicates)","TGR activity relative to dmso, time 30 (TGR; replicates)",further results
Cc1oc(C2CCCCC2)nc1CN[C@@H]1C[C@@H]2C[C@H]([C@H]1C)C2(C)C [Compound 4],1.8,4.57,18.1,significant decreases in fluorescence,–,–,–,–,–,"inhibition at 50 µM (PfTrxR; read-out: PfTrxR % inhibition at 50 µM): 18%; rate, 0.5 hr (TGR; panel d Time Dependence, 0.5 hr): 0.06468 and 0.06599 and 0.06659; avg % inhib, 0.5 hr (TGR; panel d Time Dependence, 0.5 hr, average): 18.4758%; % inhib, 0.5 hr (TGR; panel d Time Dependence, 0.5 hr, replicates): 18.6722% and 19.1992% and 17.556%; rate, 1 hr (TGR; panel d Time Dependence, 1 hr): 0.05061 and 0.05195 and 0.05284; avg % inhib, 1 hr (TGR; panel d Time Dependence, 1 hr, average): 30.1534%; % inhib, 1 hr (TGR; panel d Time Dependence, 1 hr, replicates): 31.2738% and 29.387% and 29.7994%; rate, 2 hr (TGR; panel d Time Dependence, 2 hr): 0.03578 and 0.03672 and 0.03844; avg % inhib, 2 hr (TGR; panel d Time Dependence, 2 hr, average): 45.3087%; % inhib, 2 hr (TGR; panel d Time Dependence, 2 hr, replicates): 46.082% and 46.1584% and 43.6859%; rate, 3 hr (TGR; panel d Time Dependence, 3 hr): 0.02569 and 0.02601 and 0.02662; avg % inhib, 3 hr (TGR; panel d Time Dependence, 3 hr, average): 55.4006%; % inhib, 3 hr (TGR; panel d Time Dependence, 3 hr, replicates): 55.9121% and 55.5156% and 54.774%; rate, 6 hr (TGR; panel d Time Dependence, 6 hr): 0.01404 and 0.01371; avg % inhib, 6 hr (TGR; panel d Time Dependence, 6 hr, average): 70.958%; % inhib, 6 hr (TGR; panel d Time Dependence, 6 hr, replicates): 70.2542% and 71.6618%; rate, 24 hr (TGR; panel d Time Dependence, 24 hr): 0.004212 and 0.004652 and 0.005413; avg % inhib, 24 hr (TGR; panel d Time Dependence, 24 hr, average): 87.319%; % inhib, 24 hr (TGR; panel d Time Dependence, 24 hr, replicates): 88.741% and 87.5248% and 85.6913%"
Cc1oc(C2CCCCC2)nc1C(=O)N[C@@H]1C[C@@H]2C[C@H]([C@H]1C)C2(C)C [Compound 7],-0.315,4.13,10.8,significant decreases in fluorescence,10.9848 and 15.3969 and 9.648,3.59 and 2.532 and 3.143,6.629 and 6.846 and 6.371,7.462 and 7.906 and 7.375,9.0362 and 7.137 and 8.678,–
C[C@@H]1[C@H]2C[C@@H](C[C@H]1NCc1nc3ccccc3n1C1CCCCCC1)C2(C)C [Compound 8],-0.482,-0.643,-0.523,significant decreases in fluorescence,81.9258 and 91.2824 and 94.0371,16.4661 and 22.6942 and 32.7859,10.3137 and 9.575 and 9.146,4.106 and 4.258 and 6.77,0.4436 and 0.7059 and 0.3756,–
